Source: paper PMC3459870, “Hit-to-Lead Development of the Chamigrane Endoperoxide Merulin A for the Treatment of African Sleeping Sickness” (PLoS ONE, 2012)
Read-outs that look alike come from different tables or passages of the source.

What was measured:
[1] = system: Trypanosoma brucei brucei strain 427–221; test: Trypanosome screening assay (CellTiter-Glo ATP bioluminescence, 48 h); format: cell-based; details: Trypanosoma brucei, read-out: T.b.b IC50
Method: Trypanosoma brucei brucei strain 427–221 were grown at 37°C, 5% CO2 in HMI-9 medium containing 10% Fetal Bovine Serum, 10% Serum Plus (JRH Inc., Lenexa, KS,USA) and penicillin/streptomycin.
T.b.b. 427–221 were diluted to 2.10^4 per ml in complete HMI-9 medium and aliquoted in Greiner sterile 384-well flat white opaque culture plates using a WellMate cell dispenser from Matrix Tech. (Hudson, NH, USA). Test compounds were serially diluted in dimethyl sulfoxide (DMSO) and added to the assay plates with the robotic dispenser Biomek FXp liquid handler (Beckman Coulter). Thimerosal (2 µM final concentration) was added as a positive control and DMSO as a negative control (1% final concentration). Trypanosomes were incubated with compounds for 48 hours at 37°C with 5% CO2 before monitoring cell viability as previously described. Briefly, trypanosomes were lysed in the wells by adding 25 µL of CellTiter-GloTM (Promega). The lysed trypanosomes were placed on an orbital shaker at room temperature for 2 minutes. After lysis, the resulting ATP-bioluminescence was measured at room temperature using an Analyst HT plate reader (Molecular Devices). Percentage inhibition of parasite growth was calculated for each well as [1−(RLUx−RLU+)/(RLU−−RLU+)]*100 where RLUx, RLU+ and RLU− are respectively the Relative Light Units for each well, positive (thimerosal) and negative (DMSO) controls. A screening window coefficient, denoted Z′ factor, was used to evaluate the performance of the assay. The Z′ factor, calculated as 1−(3σc++3σc−)/(μc+−μc−) where σc+, σc−, μc+ and μc− are respectively the standard deviation and mean values of positive and negative controls, is reflective of the assay signal dynamic range and the data variation associated with signal measurement. IC50's were calculated using Prism (GraphPad).

[2] = treatment of second stage infection (CNS infection); estimated; cited from earlier work
T98-G cells = test: Glioblastoma toxicity screening assay (nuclei count by imaging, 17 h); format: cell-based; details: Homo sapiens, T98G; Figure 4
Method: (§1) T98-G cells (ATTC number: CRL-1690) were plated at a density of 2,000 cells per well into two 384 well clear bottom plates (Costar 3712) in DMEM with 10% FBS. After 24 hours incubation at 37°C with 5% CO2 the cells were pinned with 200 nL of a two-fold serial dilution of merulin analogues. After 17 hours of treatment at 37°C in 5% CO2 the plates were fixed with 4% formaldehyde and washed with PBS (BioTek ELx405). After 10 minutes in PBS with 0.5% TritonX-100 each plate was washed and blocked with 2% Bovine Serum Albumin in PBS. Nuclei were stained with Hoechst 33342 then washed and placed in 40 µL of PBS with 0.1% sodium azide. Plates were imaged using the ImageXpress Micro epifluorescent scope (Molecular Devices). MetaXpress software was used to quantify total number of cells and IC50s were calculated using Prism (GraphPad).

T.b.b 427–221 = test: Live trypanosome fluorescence imaging; format: cell-based, Trypanosoma brucei brucei; details: 20 µM, 2 hours, washed, 1 hour compound-free medium
Method: To explore the intracellular of distribution the coumarin-labeled derivative 30, parasites were incubated with 20 µM of 30 for 2 hours, washed once, and incubated in compound-free medium for 1 hour prior to microscopy. […] Although visualization of labeled merulin A in live cell imaging is an encouraging observation, further experiments are required to determine the precise localization and potential function of these compounds against T. brucei.
T.b.b 427–221 diluted to […] in complete HMI-9 medium were incubated with either 20 µM of compound 30, 20 µM of the free coumarin dye or 30 µM of compound 17 at 37°C for 2 hours. The parasites were then washed once with complete HMI-9 medium and incubated in compound-free complete HMI-9 medium for 1 additional hour. Parasites were directly mounted under coverslips and viewed with 100×-oil immersion on a Zeiss Laser Confocal microscope LSM 510 Meta.

HeLa cells = test: HeLa toxicity screening assay (nuclei count by imaging, 17 h); format: cell-based, human; details: for IC50: Homo sapiens, HeLa
Method: as §1, with “HeLa” for “T98-G”, “cells” for “cells (ATTC number: CRL-1690)”

SMILES	IC50 (T98-G cells) [µM]	fluorescence detected in live parasites (T.b.b 427–221)	IC50 (HeLa cells; Figure 4) [µM]	IC50 ([1]; Figure 4, bloodstream form) [µM]	further results
Nc1nc(N)nc(Nc2ccc([As]3SCC(CO)S3)cc2)n1 (stereo not drawn) [Melarsoprol, reference compound]					IC50 [1]: 0.002 µM; mortality rate due to drug-associated toxicity [2]: three to ten
CC1(C)CCC(=O)[C@@]2(C)OO[C@@H]3C[C@@]12CC[C@H]3O [compound 1, merulin A]	> 50	No fluorescence was detected	> 50		IC50 ([1]; Table 3): 4 µM
CC1(C)CCC(=O)[C@@]2(C)OO[C@H]3C[C@@]12CC[C@H]3OC(=O)c1ccc(N2CCCCC2)nc1 [compound 26, (3S,4R,6aS,10aS)-7,7,10a-trimethyl-10-oxooctahydro-3H-3,6a-methanobenzo[c][1,2]dioxocin-4-yl 6-(piperidin-1-yl)nicotinate]	15		24	0.21	
CC(C)(C)OC(=O)N1CCC(CC(=O)O[C@@H]2CC[C@@]34C[C@@H]2OO[C@]3(C)C(=O)CCC4(C)C)CC1 [compound 27, tert-butyl-4-(2-oxo-2-(((3S,4R,6aS,10aS)-7,7,10a-trimethyl-10-oxooctahydro-3H-3,6a-methanobenzo[c][1,2]dioxocin-4-yl)oxy)ethyl)piperidine-1-carboxylate]	> 50		33	0.16	
CC1(C)CCC(=O)[C@@]2(C)OO[C@H]3C[C@@]12CC[C@H]3OC(=O)CC1CCNCC1 [compound 28, (3S,4R,6aS,10aS)-7,7,10a-trimethyl-10-oxooctahydro-3H-3,6a-methanobenzo[c][1,2]dioxocin-4-yl 2-(piperidin-4-yl)acetate]	> 50		21	0.16	
CC1(C)CCC(=O)[C@@]2(C)OO[C@H]3C[C@@]12CC[C@H]3OC(=O)CN [compound 29, (3S,4R,6aS,10aS)-7,7,10a-trimethyl-10-oxooctahydro-3H-3,6a-methanobenzo[c][1,2]dioxocin-4-yl 2-aminoacetate]	> 50		> 50	> 20	
CN(C)c1ccc2c(CC(=O)O[C@@H]3CC[C@@]45C[C@@H]3OO[C@]4(C)C(=O)CCC5(C)C)cc(=O)oc2c1 [compound 30, (3S,4R,6aS,10aS)-7,7,10a-trimethyl-10-oxooctahydro-3H-3,6a-methanobenzo[c][1,2]dioxocin-4-yl 2-(7-(dimethylamino)-2-oxo-2H-chromen-4-yl)acetate]	> 50	Diffuse cytoplasmic fluorescent signal			IC50 ([1]; Table 3): 0.42 µM; SI (HeLa cells; HeLa vs T. brucei): > 125; IC50 (HeLa cells): > 50 µM
CN(C)c1ccc2c(CC(=O)NCCNC(=O)CCc3ccccc3)cc(=O)oc2c1 [compound 31, N-(2-(2-(7-(dimethylamino)-2-oxo-2H-chromen-4-yl)acetamido)ethyl)-3-phenylpropanamide]		No fluorescence was detected			
